Experimental findings from patent US20250368633A1, “AZEPINE FUSED RING COMPOUND AS RIPK1 INHIBITOR AND USE THEREOF” (ARTIVILA BIOPHARMA, priority 2022, published 2025) are described below.

One experiment relates to U937 cells. The experiment is described as follows: Inhibition rate of compound (1 μM) on necroptosis of U937 cells (TSZ-induced, CellTiter-Glo). The format is cell-based. As to conditions: TSZ (hTNF-α, SM-164, Z-VAD-FMK) 20 hours. In outline:
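U937 cells were pretreated 15 min with compound, then necroptosis was triggered with TSZ (Z-VAD-FMK, hTNF-α, SM-164) for 20 h at 37° C. Viability was read as ATP by CellTiter-Glo luminescence, and inhibition (%) was taken relative to no-TSZ and TSZ-only wells.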

Another experiment deals with T1, RIPK1 kinase (Homo sapiens, UniProt Q13546).
T1 construct: purchased Promega VA7593
T1 sequence (Q13546 1-671): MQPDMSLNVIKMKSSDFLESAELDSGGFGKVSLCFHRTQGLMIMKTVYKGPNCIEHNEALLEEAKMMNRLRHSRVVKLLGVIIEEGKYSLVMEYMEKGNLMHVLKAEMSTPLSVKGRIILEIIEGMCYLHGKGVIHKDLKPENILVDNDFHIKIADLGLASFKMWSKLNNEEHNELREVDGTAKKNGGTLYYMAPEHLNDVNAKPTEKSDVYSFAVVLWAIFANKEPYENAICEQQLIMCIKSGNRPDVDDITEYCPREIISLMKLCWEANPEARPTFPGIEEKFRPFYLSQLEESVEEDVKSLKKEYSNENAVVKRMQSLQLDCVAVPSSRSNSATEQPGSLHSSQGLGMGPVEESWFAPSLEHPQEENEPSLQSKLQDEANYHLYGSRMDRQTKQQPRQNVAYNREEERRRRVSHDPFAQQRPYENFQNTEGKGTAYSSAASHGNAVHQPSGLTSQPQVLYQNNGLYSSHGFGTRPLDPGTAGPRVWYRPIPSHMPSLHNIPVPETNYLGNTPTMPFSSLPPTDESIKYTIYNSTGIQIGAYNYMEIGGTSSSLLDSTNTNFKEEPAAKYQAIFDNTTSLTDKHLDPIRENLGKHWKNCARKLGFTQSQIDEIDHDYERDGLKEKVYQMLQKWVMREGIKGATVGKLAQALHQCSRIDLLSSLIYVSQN
In words: In vitro RIPK1 kinase activity assay (ADP-Glo), inhibition by compounds at 1 μM. It counts as biochemical. As to conditions: compound 1 μM; ATP 10 μM; MBP substrate 100 μg/mL; read-out: RIPK1 kinase activity inhibition rate range. The method in brief:
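Compound and RIPK1 were preincubated 15 min at room temperature, then reacted 1 h with 10 μM ATP and 100 μg/mL MBP substrate in kinase buffer D. ADP formed was measured by ADP-Glo luminescence and converted to percent inhibition of kinase activity.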
Background: ADP-Glo turns the ADP formed in a reaction into a luminescent signal.

SMILES strings stand for the structures. Where only a bound is given, the exact number is not on record here.

With `COC1(C#Cc2ccc3c(c2)N(C)C(=O)[C@@H](NC(=O)C(=O)NCCc2ccccc2)CO3)COC1` [Example 78, (S)—N^1-(7-((3-methoxyoxetan-3-yl)ethynyl)-5-methyl-4-oxo-2,3,4,5-tetrahydrobenzo[b][1,4]oxazepin-3-yl)-N^2-phenethyloxalamide], the “Inhibition rate range of compounds (1 μM) on U937 cell necroptosis” value (“Inhibition rate range of compounds” for short) in the experiment on U937 cells was “A (A: ≥90%)”. In addition, at RIPK1 kinase, the inhibition (as a rule, the change of the read-out against control, counted positive when it falls) at 1 µM lay within 50 to 74%.
With `CN1C(=O)[C@@H](NC(=O)C(=O)NCCc2ccccc2)COc2ccc(C#CCC3(O)COC3)cc21` [Example 79, (S)—N^1-(7-(3-(3-hydroxyoxetan-3-yl)prop-1-yn-1-yl)-5-methyl-4-oxo-2,3,4,5-tetrahydrobenzo[b][1,4]oxazepin-3-yl)-N^2-phenethyloxalamide], the “Inhibition rate range of compounds” value in the experiment on U937 cells was “A (A: ≥90%)”. Further, the inhibition at 1 µM on RIPK1 kinase fell in the range of 50 to 74%.
For the compound `CN1C(=O)[C@@H](NC(=O)C(=O)NCCc2ccccc2)COc2ccc(C#CC3(O)CCOC3)cc21` (stereo partly drawn) [Example 80, N^1-((3S)-7-((3-hydroxytetrahydrofuran-3-yl)ethynyl)-5-methyl-4-oxo-2,3,4,5-tetrahydrobenzo[b][1,4]oxazepin-3-yl)-N^2-phenethyloxalamide], the “Inhibition rate range of compounds” value in the experiment with U937 cells is “A (A: ≥90%)”. For the same compound, the inhibition at 1 µM at RIPK1 kinase is at least 75%.
On to `CN1C(=O)[C@@H](NC(=O)C(=O)NCCc2ccccc2)COc2ccc(C#CCN3CCC(O)CC3)cc21` [Example 81, (S)—N^1-(7-(3-(4-hydroxypiperidin-1-yl)prop-1-yn-1-yl)-5-methyl-4-oxo-2,3,4,5-tetrahydrobenzo[b][1,4]oxazepin-3-yl)-N^2-phenethyloxalamide], for which the “Inhibition rate range of compounds” value in the experiment with U937 cells was “A (A: ≥90%)”. Besides, at RIPK1 kinase, the inhibition at 1 µM is at least 75%.
On the same counts, the results for `CN1C(=O)[C@@H](NC(=O)C(=O)NCCc2ccccc2)COc2ccc(C#CCN3C(=O)CCC3=O)cc21` [Example 84, (S)—N^1-(7-(3-(2,5-dioxopyrrolidin-1-yl)prop-1-yn-1-yl)-5-methyl-4-oxo-2,3,4,5-tetrahydrobenzo[b][1,4]oxazepin-3-yl)-N^2-phenethyloxalamide] are “A (A: ≥90%)” and at least 75%.
For the compound `CN1C(=O)[C@@H](NC(=O)C(=O)NCCc2ccccc2)COc2ccc(C#CCN3CCNC(=O)C3)cc21` [Example 85, (S)—N^1-(5-methyl-4-oxo-7-(3-(3-oxopiperazin-1-yl)prop-1-yn-1-yl)-2,3,4,5-tetrahydrobenzo[b][1, 4]oxazepin-3-yl)-N^2-phenethyloxalamide], the “Inhibition rate range of compounds” value in the experiment with U937 cells is listed as “B (B: 50-89%)”. The inhibition at 1 µM on RIPK1 kinase is at least 75%.
Regarding `CN1C(=O)[C@@H](NC(=O)C(=O)NCCc2ccccc2)COc2ccc(C#CCNC(=O)OC(C)(C)C)cc21` [Example 86, tert-butyl (S)-(3-(5-methyl-4-oxo-3-(2-oxo-2-(phenethylamino)acetamido)-2,3,4,5-tetrahydrobenzo[b][1,4]oxazepin-7-yl)prop-2-yn-1-yl)carbamate], the “Inhibition rate range of compounds” value with U937 cells was “A (A: ≥90%)”. The inhibition at 1 µM at RIPK1 kinase lay within 50 to 74%.
For `CN1C(=O)[C@@H](NC(=O)C(=O)NCCc2ccccc2)COc2ccc(C#CCNC(=O)CO)cc21` [Example 88, (S)—N^1-(7-(3-(2-hydroxyacetamido)prop-1-yn-1-yl)-5-methyl-4-oxo-2,3,4,5-tetrahydrobenzo[b][1, 4]oxazepin-3-yl)-N^2-phenethyloxalamide], the “Inhibition rate range of compounds” value in the experiment on U937 cells is on record as “A (A: ≥90%)”. Further, the inhibition at 1 µM on RIPK1 kinase was at least 75%.
`C=CC(=O)NCC#Cc1ccc2c(c1)N(C)C(=O)[C@@H](NC(=O)C(=O)NCCc1ccccc1)CO2` [Example 89, (S)—N^1-(7-(3-acrylamidoprop-1-yn-1-yl)-5-methyl-4-oxo-2,3,4,5-tetrahydrobenzo[b][1,4]oxazepin-3-yl)-N^2-phenethyloxalamide]: the “Inhibition rate range of compounds” value with U937 cells is listed as “A (A: ≥90%)”. For the same compound, on RIPK1 kinase, the inhibition at 1 µM fell in the range of 50 to 74%.
The matching figures for `CN1C(=O)[C@@H](NC(=O)C(=O)NCCc2ccccc2)COc2ccc(C#CC3CN(C=O)C3)cc21` [Example 91, (S)—N^1-(7-((1-formylazetidin-3-yl)ethynyl)-5-methyl-4-oxo-2,3,4,5-tetrahydrobenzo[b][1,4]oxazepin-3-yl)-N^2-phenethyloxalamide]: “A (A: ≥90%)” and at least 75%.
On the same counts, the results for `CN1C(=O)[C@@H](NC(=O)C(=O)NCCc2ccccc2)COc2ccc(C#CC3(O)CN(C=O)C3)cc21` [Example 92, (S)—N^1-(7-((1-formyl-3-hydroxyazetidin-3-yl)ethynyl)-5-methyl-4-oxo-2,3,4,5-tetrahydrobenzo[b][1,4]oxazepin-3-yl)-N^2-phenethyloxalamide] are “A (A: ≥90%)” and 50 to 74%.
Turning to `CCOC(=O)CCC#Cc1ccc2c(c1)N(C)C(=O)[C@@H](NC(=O)C(=O)NCCc1ccccc1)CO2` [Example 94, ethyl (S)-5-(5-methyl-4-oxo-3-(2-oxo-2-(phenethylamino)acetamido)-2,3,4,5-tetrahydrobenzo[b][1,4]oxazepin-7-yl) pent-4-ynoate], in the experiment with U937 cells, the “Inhibition rate range of compounds” value was “B (B: 50-89%)”. At RIPK1 kinase, the inhibition at 1 µM is at least 75%.
As to `CN1C(=O)[C@@H](NC(=O)C(=O)NCc2ccccc2)COc2ccc(C#CCn3ccnc3)cc21` [Example 104, (S)—N^1-(7-(3-(1H-imidazol-1-yl)prop-1-yn-1-yl)-5-methyl-4-oxo-2,3,4,5-tetrahydrobenzo[b][1,4]oxazepin-3-yl)-N^2-benzyloxalamide], in the experiment on U937 cells, the “Inhibition rate range of compounds” value is “A (A: ≥90%)”. For the same compound, on RIPK1 kinase, the inhibition at 1 µM is at least 75%.
On to `CN1C(=O)[C@@H](NC(=O)C(=O)NCc2ccccc2)COc2ccc(C#CCN3CCOCC3)cc21` [Example 106, (S)—N^1-benzyl-N^2-(5-methyl-7-(3-morpholinoprop-1-yn-1-yl)-4-oxo-2,3,4,5-tetrahydrobenzo[b][1, 4]oxazepin-3-yl)oxalamide], for which the “Inhibition rate range of compounds” value with U937 cells is on record as “B (B: 50-89%)”. For the same compound, on RIPK1 kinase, the inhibition at 1 µM was at least 75%.
`CN1C(=O)[C@@H](NC(=O)C(=O)NCc2ccccc2)COc2ccc(C#CCN3CCNC(=O)C3)cc21` [Example 107, (S)—N^1-benzyl-N^2-(5-methyl-4-oxo-7-(3-(3-oxopiperazin-1-yl)prop-1-yn-1-yl)-2,3,4,5-tetrahydrobenzo[b][1,4]oxazepin-3-yl)oxalamide]: the “Inhibition rate range of compounds” value in the experiment with U937 cells is “A (A: ≥90%)”. At RIPK1 kinase, the inhibition at 1 µM was 50 to 74%.
Consider `CN1C(=O)[C@H](NC(=O)C(=O)NCCc2cccc(F)c2)COc2ccc(C#CCCO)cc21` [Example 109, (R)—N^1-(3-fluorophenethyl)-N^2-(7-(4-hydroxybut-1-yn-1-yl)-5-methyl-4-oxo-2,3,4,5-tetrahydrobenzo[b][1,4]oxazepin-3-yl)oxalamide], for which the “Inhibition rate range of compounds” value in the experiment on U937 cells is “A (A: ≥90%)”. The inhibition at 1 µM at RIPK1 kinase was at least 75%.
Turning to `CN1C(=O)[C@@H](NC(=O)C(=O)NCCc2cccc(F)c2)COc2ccc(C#CC3(O)COC3)cc21` [Example 110, (S)—N^1-(3-fluorophenethyl)-N^2-(7-((3-hydroxyoxetan-3-yl)ethynyl)-5-methyl-4-oxo-2,3,4,5-tetrahydrobenzo[b][1,4]oxazepin-3-yl)oxalamide], the “Inhibition rate range of compounds” value in the experiment on U937 cells is reported as “A (A: ≥90%)”. Moreover, at RIPK1 kinase, the inhibition at 1 µM was at least 75%.
On to `CN1C(=O)[C@@H](NC(=O)C(=O)NCCc2cccc(F)c2)COc2ccc(C#CCN3CC[C@@H](O)C3)cc21` [Example 114, N^1-(3-fluorophenethyl)-N^2-((S)-7-(3-((R)-3-hydroxypyrrolidin-1-yl)prop-1-yn-1-yl)-5-methyl-4-oxo-2,3,4,5-tetrahydrobenzo[b][1,4]oxazepin-3-yl)oxalamide], for which the “Inhibition rate range of compounds” value with U937 cells was “A (A: ≥90%)”. Besides, the inhibition at 1 µM on RIPK1 kinase was at least 75%.
On the same counts, the results for `CN1C(=O)[C@@H](NC(=O)C(=O)NCCc2cccc(F)c2)COc2ccc(C#CCN3CC[C@H](O)C3)cc21` [Example 115, N^1-(3-fluorophenethyl)-N^2-((S)-7-(3-((S)-3-hydroxypyrrolidin-1-yl)prop-1-yn-1-yl)-5-methyl-4-oxo-2,3,4,5-tetrahydrobenzo[b][1,4]oxazepin-3-yl)oxalamide] are “A (A: ≥90%)” and 50 to 74%.
